Measurements from patent publication US12667568B2, “Compositions and methods for the treatment and diagnosis of cancer” (The General Hospital Corporation, priority 2020, dated 2026).

Columns and labels:
Assay type in all cases: cell-based
U2OS or MCF7 cells = assay: Cell survival assay, YW-1842 alone; settings: concentration below 5 μM/L
Procedure: FIGS. 6F-6G show TRDMT1 inhibitor YW-1842 delays the repair of DSBs at the transcribed genome. (FIG. 6F) U2OS or MCF7 cells were treated with or without compound YW-1842 at the indicated concentration. The survival rate of these cells was shown (n=3, Mean±SD). (FIG. 6G) SCE WT cells were transfected with TA-KR and were cultured with […] YW-1842 or not for 6 hours, γ-H2AX (n=3, 50 cells per replicated, Mean±SD) were stained and quantified.
(§1) Approximately 500 U2OS/TRDMT1 KO U2OS/MCF-7/HCC1954/HCC1937 cells and TRDMT1 siRNA or GFP-TRDMT1 WT/G155V/K251R transfected cells were seeded in 6 cm dish with or without TRDMT1 inhibitors (2.5 μM/L). 6 hrs after seeding, cells were exposed to cisplatin (1134357, Sigma, 1 μM/L), ATMi (KU55933, C9867, Sigma, 1 μM/L), ATRi (AZ20, 57050, Selleck, 1 μM/L) or PARPi (Olaparib, AZD2461, Sigma, 1 μM/L) at indicated concentration or ionizing radiation (IR). After 7-14 days, colonies were fixed and stained with 0.3% crystal violet in methanol, and the number of colonies was counted manually.

[1] = tested on: MCF-7, HCC1954, and HCC1937 cells; assay: Cell survival assay, YW-1842 with DNA damaging agents, IR or H2O2
Procedure: (§2) FIGS. 6A-6E show TRDMT1 Inhibitors specifically sensitizes cells to DNA damage agents. (FIG. 6A) SCE WT cells were transfected with TA-KR and were cultured with 2.5 μM/L compound YW-1842 or not for 6 hours, m^5C (n=3, 50 cells per replicated, Mean±SD) was stained and quantified. DR-GFP (FIG. 6B) or EJ5-GFP (FIG. 6C) cells were pre-treated with 2.5 μM/L compound YW-1842 for 6 h or TRDMT1 siRNA for 48 h, or DMSO. Then the cells were transfected with NLS-I-SceI plasmid to induce DSB. The efficiency of HR (FIG. 6B) or NHEJ (FIG. 6C) was analyzed by flow-cytometry (n=3, Mean f SD). (FIG. 6D) After seeding, MCF-7, HCC1954, and HCC1937 cells were pre-treated with or without 2.5 μM/L compound YW-1842 for 6 h, then cultured with chemotherapy drugs (1 μM/L Cisplatin; 1 μM/L ATRi AZ20; […]; 1 μM/L PARPi Olaparib for 10 days. The survival rate of these cells was analyzed (n=3, Mean±SD). (FIG. 6E) TRDMT1 KO U2OS cells were transfected with GFP-TRDMT1^WT or GFP-TRDMT1^G155V with or without 2.5 μM/L compound YW-1842, the survival rate of these cells after IR or Cisplatin was shown (n=3, Mean±SD).
MCF-7, HCC1954, and HCC1937 cells were pre-treated with or without TRDMT1 inhibitor YW-1842 (2.5 μM) for 6 hrs, then the cells were exposed to IR or H2O2, and cultured for 7-14 days. The survival rate of these cells was analyzed (n=3, Mean±SD)
as §1

TRDMT1 KO U2OS cells = assay: Cell survival assay in TRDMT1 KO cells after IR or Cisplatin; settings: 2.5 μM/L
Procedure: as §2
Approximately 500 U2OS/TRDMT1 KO U2OS/MCF-7/HCC1954/HCC1937 cells and TRDMT1 siRNA or GFP-TRDMT1 WT/G155V/K251R transfected cells were seeded in 6 cm dish with or without TRDMT1 inhibitors (2.5 μM/L). […]

TRDMT1 = molecular target: T1, TRDMT1 (Homo sapiens, UniProt O14717); assay: m5C staining at TA-KR DNA damage sites
T1 construct: SCE WT cells were transfected with TA-KR and were cultured with 2.5 μM/L compound YW-1842 or not for 6 hours; endogenous in cells
T1 sequence (O14717 1-391): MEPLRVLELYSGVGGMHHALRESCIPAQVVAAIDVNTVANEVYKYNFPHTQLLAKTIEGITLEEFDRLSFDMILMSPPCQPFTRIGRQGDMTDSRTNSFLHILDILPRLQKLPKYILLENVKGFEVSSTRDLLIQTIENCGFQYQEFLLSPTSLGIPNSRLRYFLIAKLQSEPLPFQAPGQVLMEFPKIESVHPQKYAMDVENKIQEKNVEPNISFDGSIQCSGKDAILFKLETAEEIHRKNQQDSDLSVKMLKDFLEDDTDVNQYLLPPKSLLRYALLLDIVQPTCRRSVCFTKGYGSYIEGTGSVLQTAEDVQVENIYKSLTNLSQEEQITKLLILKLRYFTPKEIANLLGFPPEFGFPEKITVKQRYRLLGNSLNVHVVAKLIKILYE
Procedure: as §2
The Olympus FV1000 confocal microscopy system (Cat. FIOPRDMYR-1, Olympus) and FV1000 software were used for the acquisition of images. Cells were cultured in 35 mm glass-bottom dishes (MatTek, P35GC-1.5-14-C) before observation. […] The intensity was measured by ImageJ 1.52i software. […]

U2OS (DR-GFP) cells = assay: DR-GFP HR reporter assay; settings: 2.5 μM/L, 6 h pre-treatment, versus DMSO
Procedure: as §2
Using a previously described method[Lan, L. et al. The ACF1 complex is required for DNA double-strand break repair in human cells. […] The GFP signal arising from the recombination (HR) or non-homologous end joining (NHEJ) events were measured by flow cytometry.

## COc1cc2nc(-n3cc(-c4ccc(S(C)(=O)=O)cc4)cn3)nc(-c3ccsc3)c2cc1OC [YW-1842, 6,7-dimethoxy-2-(4-(4-(methylsulfonyl)phenyl)-1H-pyrazol-1-yl)-4-(thiophen-3-yl)quinazoline]
U2OS or MCF7 cells
  antiproliferative effect: did not prohibit cell proliferation
[1]; 2.5 μM, combined with H2O2, versus DMSO
  survival rate in combination with H2O2: decreased the survival rate of all the three cell lines
[1]; 2.5 μM/L with Cisplatin, ATRi AZ20, ATMi KU55933 or PARPi Olaparib, versus single treatment
  sensitization to DNA damaging agents (survival rate): sensitizes the cells to above DNA damaging agents
[1]; 2.5 μM/L, alone
  cell killing by compound alone: does not kill cells alone
[1]; YW-1842 2.5 μM, Olaparib at 1, HCC 1954 cell lines
  synergy with PARPi Olaparib: strong synergy
TRDMT1 KO U2OS cells
  sensitization of TRDMT1 KO cells to IR or Cisplatin: does not sensitize TRDMT1 KO
TRDMT1; 2.5 μM/L, 6 hours, TA-KR sites (FIG. 6A)
  m^5C inhibitory activity: almost equivalent to TRDMT1 depletion
TRDMT1; summary statement
  inhibiting TRDMT1 recruitment, m^5C formation and HR efficiency at DNA damage sites: performed well
U2OS (DR-GFP) cells
  HR-mediated repair of I-SceI-generated DSBs (DR-GFP): diminished the repair of I-SceI-generated DSBs
